According to patent publication US5668182A, “Method of calming or sedating an animal with a hydroxy benzaldehyde compound” (priority 1996, dated 1997):

How the values were obtained:
mice [1] = experiment: Electroshock-induced seizures in mice (Example 5); assay type: in vivo; settings: vanillin 300 mg/kg i.p.
Method: Mice were treated with vanillin (100, 200, or 300 mg/kg) or saline (0.9% NaCl) by i.p. injection. The treatment was followed either by injection of pentylenetetrazol ("Metrazol"), 80 or 90 mg/kg by i.p. injection (given 5 minutes after vanillin) or by exposure to a 1-second pulse of shock through electrodes clamped to the ears (5 minutes after vanillin). The end-points for both tests were the occurrence of a tonic (extensor) convulsion and/or death. Six mice were used per group for the Metrazol-induced seizure test, and five mice were used per group for the electroshock-induced seizure test.

rats = settings: cited from earlier work
man = settings: in man; cited from earlier work
mice [2] = experiment: Spontaneous locomotor activity of mice (Example 3); assay type: in vivo
Method: The effect of vanillin on spontaneous locomotor activity of mice was examined. Three groups of male mice, with four mice per group, were assigned to receive a dosage of vanillin of 0, 200 or 300 mg/kg, respectively. After i.p. injection of vanillin or a control solution (0.9% NaCl in water), an injected mouse was placed by itself in a cage, the cage enclosed in a cabinet to exclude external stimuli, and locomotor activity of the mouse was monitored. Three types of movements of the mouse within the cage were measured, based upon interruptions of 16 beams of infrared light, spaced one inch (2.54 cm) apart, which traverse the cage. Interruptions of the infrared beams are detected by sensors and are recorded as "counts" of activity using a system obtained from Omnitech Electronics, Columbus Ohio.
Three types of activity measures were automatically recorded by the system: (1) all interruptions of all beams were recorded as "Total activity counts"; (2) interruptions of two consecutive beams were recorded as "Ambulatory activity counts"; and (3) interruptions of four consecutive beams were recorded as "Gross movements".
The effects of doses of vanillin (200 and 300 mg/kg i.p.) was assessed and compared with locomotor activity recorded for concomitantly tested mice given only vehicle (0.9% NaCl in water). Measurement of locomotor activity was made during 10 minute intervals for 60 minutes after treatment. Due to the relatively short duration of vanillin encountered, the higher dose group also had measurements taken at three minute intervals for 24 minutes and at one minute intervals for nine minutes after treatment.
Means and standard errors of numbers of counts were determined for each experimental group.

mice [3] = experiment: Pentobarbital-induced loss of righting reflex ("sleep") in mice (Example 2); assay type: in vivo
Method: The depressant effect of vanillin on mice was investigated by examining the effect of vanillin on pentobarbital-induced loss of righting reflex. Groups of mice (six to fourteen mice per group) were designated to receive a dose of vanillin of 50, 100, 200 or 300 mg/kg, or a control vehicle (0.9% sodium chloride in water). Fifty (50) mg/kg I.p. (intraperitoneally)injected pentobarbital was administered to each mouse of each group, and each mouse was also concurrently given the dose of vanillin (50, 100, 200 or 300 mg/kg) or the control vehicle, depending on its grouping, by s.c. (subcutaneous) injection.
The effects of vanillin on the onset and duration of "sleep" induced by the pentobarbital were observed. […] Means and standard errors of values for onset and duration of "sleep" were determined for each experimental group. Each vanillin-treated group was compared with its concomitantly tested control group (treated with saline in lieu of vanillin) for evaluating the statistical significance of vanillin effect.

COc1cc(C=O)ccc1O [vanillin, 4-hydroxy-3-methoxybenzaldehyde]
Death (mice [1]; 1-second electroshock (vehicle 1/5)): 0/5 | Tonic Convulsion (mice [1]; 1-second electroshock (vehicle 5/5)): 4/5 | oral LD50 (rats): 1580 mg/kg | metabolism and excretion (man): converted to vanillic acid in the liver and is excreted in the urine | Gross movements (mice [2]; 200 mg/kg i.p., 0-10 min (control 83 ± 16)): 86 ± 16 counts | Ambulatory activity counts (mice [2]; 200 mg/kg i.p., 0-10 min (control 739 ± 108)): 545 ± 62 counts | Total activity counts (mice [2]; 200 mg/kg i.p., 0-10 min (control 1525 ± 281)): 897 ± 201 counts | Gross movements (mice [2]; 200 mg/kg i.p., 10-20 min (control 41 ± 8)): 43 ± 8 counts | Ambulatory activity counts (mice [2]; 200 mg/kg i.p., 10-20 min (control 461 ± 68)): 291 ± 37 counts | Gross movements (mice [2]; 200 mg/kg i.p., 20-30 min (control 34 ± 13)): 18 ± 13 counts | Ambulatory activity counts (mice [2]; 200 mg/kg i.p., 20-30 min (control 307 ± 76)): 130 ± 85 counts | Total activity counts (mice [2]; 200 mg/kg i.p., 20-30 min (control 582 ± 126)): 481 ± 257 counts | Gross movements (mice [2]; 200 mg/kg i.p., 30-40 min (control 31 ± 11)): 14 ± 11 counts | Ambulatory activity counts (mice [2]; 200 mg/kg i.p., 30-40 min (control 599 ± 224)): 409 ± 276 counts | Total activity counts (mice [2]; 200 mg/kg i.p., 30-40 min (control 635 ± 204)): 410 ± 275 counts | Gross movements (mice [2]; 200 mg/kg i.p., 40-50 min (control 19 ± 14)): 32 ± 13 counts | Ambulatory activity counts (mice [2]; 200 mg/kg i.p., 40-50 min (control 171 ± 103)): 243 ± 67 counts | Total activity counts (mice [2]; 200 mg/kg i.p., 40-50 min (control 268 ± 167)): 413 ± 115 counts | Gross movements (mice [2]; 200 mg/kg i.p., 50-60 min (control 23 ± 8)): 31 ± 8 counts | Gross movements (mice [2]; 300 mg/kg i.p., 0-10 min (control 83 ± 16)): 75 ± 23 counts | Ambulatory activity counts (mice [2]; 300 mg/kg i.p., 0-10 min (control 739 ± 108)): 479 ± 150 counts | Gross movements (mice [2]; 300 mg/kg i.p., 10-20 min (control 41 ± 8)): 57 ± 19 counts | Ambulatory activity counts (mice [2]; 300 mg/kg i.p., 10-20 min (control 461 ± 68)): 298 ± 117 counts | Total activity counts (mice [2]; 300 mg/kg i.p., 10-20 min (control 832 ± 105)): 449 ± 155 counts | Gross movements (mice [2]; 300 mg/kg i.p., 20-30 min (control 34 ± 13)): 37 ± 16 counts | Ambulatory activity counts (mice [2]; 300 mg/kg i.p., 20-30 min (control 307 ± 76)): 245 ± 100 counts | Total activity counts (mice [2]; 300 mg/kg i.p., 20-30 min (control 582 ± 126)): 404 ± 176 counts | Gross movements (mice [2]; 300 mg/kg i.p., 30-40 min (control 31 ± 11)): 38 ± 10 counts | Ambulatory activity counts (mice [2]; 300 mg/kg i.p., 30-40 min (control 599 ± 224)): 270 ± 74 counts | Total activity counts (mice [2]; 300 mg/kg i.p., 30-40 min (control 635 ± 204)): 441 ± 121 counts | Gross movements (mice [2]; 300 mg/kg i.p., 40-50 min (control 19 ± 14)): 21 ± 8 counts | Ambulatory activity counts (mice [2]; 300 mg/kg i.p., 40-50 min (control 171 ± 103)): 244 ± 66 counts | Total activity counts (mice [2]; 300 mg/kg i.p., 40-50 min (control 268 ± 167)): 365 ± 108 counts | Gross movements (mice [2]; 300 mg/kg i.p., 50-60 min (control 23 ± 8)): 12 ± 7 counts | effect on smaller types of motor movements (mice [2]; 200 and 300 mg/kg i.p.): suppressed | effect on gross movements, such as walking (mice [2]; any time, doses up to 300 mg/kg): not significantly affected | persistence of some effect on locomotor activity (mice [2]; i.p.): ≥ 60 min | duration of loss of righting reflex (mice [3]; 100 to 300 mg/kg along with pentobarbital): markedly increased and enhanced | effect on barbituate-induced loss of righting reflex (mice [3]; lower dose, 50 mg/kg): appeared to lessen the barbituate effect | Duration of "Sleep" (mean + SEM) (mice [3]; vanillin 50 mg/kg s.c. + pentobarbital 50 mg/kg i.p., * p<0.05 vs control (vehicle 31.0 ± 3.79)): 20.3 ± 1.09 min | Duration of "Sleep" (mean + SEM) (mice [3]; vanillin 100 mg/kg s.c. + pentobarbital 50 mg/kg i.p. (vehicle 36.5 ± 4.67)): 47.6 ± 4.48 min | Onset of "sleep" (mean + SEM) (mice [3]; vanillin 200 mg/kg s.c. + pentobarbital 50 mg/kg i.p. (vehicle 3.5 ± 0.87)): 2.8 ± 0.97 min | Duration of "Sleep" (mean + SEM) (mice [3]; vanillin 200 mg/kg s.c. + pentobarbital 50 mg/kg i.p., ** p<0.001 vs control (vehicle 27.4 ± 3.34)): 62.9 ± 5.05 min | Onset of "sleep" (mean + SEM) (mice [3]; vanillin 300 mg/kg s.c. + pentobarbital 50 mg/kg i.p. (vehicle 4.3 ± 0.97)): 3.3 ± 0.23 min | Duration of "Sleep" (mean + SEM) (mice [3]; vanillin 300 mg/kg s.c. + pentobarbital 50 mg/kg i.p., ** p<0.001 vs control (vehicle 39.6 ± 6.57)): 102.1 ± 5.71 min
